Legend:
[1] = tested on: BxPC-3 pancreatic cancer xenografts; experiment: Human pancreatic cancer xenograft, oral dosing; type: in vivo, CD-1 nude mice; conditions: oral dose of 100 mg/week for 4 weeks
Experimental: An acclimation period of 7 days was allowed between the arrival of the animal at the study site before tumor inoculation and experimentation. Mice were inoculated subcutaneously (SC) in the right flank with 2×10^6 human H460 NSCLC or BxPC3 pancreatic cancer cells that were suspended in 0.1 mL of Dulbeco's Phosphate Buffered Salt (PBS) solution using a 1 cc syringe with a 27-5/8 gauge needle. Tumor dimensions (length and width) were measured daily before, during and after treatment (using Vernier calipers) and the tumor volume was calculated using the prolate ellipsoid formula: (length×width^2)/2. Treatment with test or control articles began 8 days post tumor cell implantation when the tumor was approximately 300 mm^3.
A similar study was conducted in CD-1 nude mice (n=9) inoculated with 2×10^6 BxPC-3 cells. The study was initiated when tumors reached an average size of 150 mm^3 (day 0) and CPI-613 was administered at an oral dose of 100 mg/week for 4 weeks. A comparator arm (n=9) was conducted with IP treatment at a weekly dose of 25 mg/kg.

[2] = tested on: human H460 NSCLC xenografts; experiment: Human non-small cell lung cancer xenograft, oral dosing; type: in vivo, CD1-Nu/Nu female mice; conditions: oral 100 mg/kg on day 8, 15, 22, 29 post implantation
Experimental: Human H460 NSCLC cells were obtained from American Type Cell Culture (ATCC) (catalog no. HTB-177, Manassas, Va.). These cells tested negative for viral contamination using the Mouse Antibody Production (MAP) test, performed by Charles River Labs Molecular Division, upon the receipt of the tumor cells from ATCC. The tumor cells were maintained at 37° C. in a humidified 5% CO2 atmosphere in T225 tissue culture flasks containing 50 mL of Roswell Park Memorial Institute (RPMI)-1640 solution with 10% Fetal Bovine Serum (FBS) and 2 mM L-glutamine. Cells were split at a ratio of 1:10 every 2-3 days by trypsinization and resuspended in fresh medium in a new flask. Cells were harvested for experiments in the same way at 70-90% confluency.
CD1-Nu/Nu female mice, ˜4-6 weeks old were obtained from Charles River Laboratories. Mice were housed 5 to a cage in a micro-isolator room in the Department of Animal Laboratory Research of New York State University (SUNY) at Stony Brook. Light-dark cycles were 12 h each daily, with light from 7 a.m. to 7 p.m. […]
An acclimation period of 7 days was allowed between the arrival of the animal at the study site before tumor inoculation and experimentation. […] Tumor dimensions (length and width) were measured daily before, during and after treatment (using Vernier calipers) and the tumor volume was calculated using the prolate ellipsoid formula: (length×width^2)/2. […]

HS-MM cells [3] = experiment: DALGreen autophagy detection in HS-MM cells; type: cell-based; conditions: 16 hours
Experimental: HS-MM cells (Sonobe H. et al., J. Pathol., 1993, 169, 317-322; Sonobe H. et al., J. Pathol., 1999, 187, 594-597) were cultured with Dulbecco's modified Eagle's medium (DMEM; Gibco Life Technologies, Grand Island, N.Y., USA) containing 10% heat-inactivated fetal bovine serum (FBS). Cells were incubated with […] autophagy detection agent (Dojindo Co., Kumamoto, Japan) according to the manufacturer's protocol (https://www.dojindo.com/TechnicalManual/Manual_[…].pdf). The […]-treated cells were then incubated with vehicle (DMEM+10% heat-inactivated FBS containing the same amount of DMSO and distilled water present in the corresponding CPI-613 and chloroquine experiments), CPI-613 (added […] of a 5 mg/mL solution of CPI-613 in DMSO per mL of medium to provide a 1 μg/mL concentration of CPI-613 in the medium), or the combination of CPI-613 (1 μg/mL as above) and chloroquine (added 2 μL of a 5 mg/mL solution of chloroquine in distilled water per mL of medium to provide a 10 μg/mL concentration of chloroquine in the medium) at 37° C. under 5% CO2 for 16 hours, and then visualized under a confocal fluorescence microscope (Leica TCS SP8; Leica Corporation, Germany) and analyzed with a Guava Easy-Cyte cell analyzer ([…], Calif., USA).

[4] = Plasma pharmacokinetics and oral bioavailability of formulations; design: species or system BALB/c nude mice; conditions: mouse, in vivo
Experimental: Six groups of 16 BALB/c nude mice (8 males and 8 females) per group were administered 6,8-bis-benzylthio-octanoic acid in six different ways: (1) 5 μL/g IV injection (tail vein) of the triethanolamine/dextrose aqueous solution of Example 18 (25 mg/kg; 5 mL/kg; Ex. 18A); (2) 5 μL/g IP injection of the triethanolamine/dextrose aqueous solution of Example 18 (25 mg/kg; 5 mL/kg; 18A); (3) 5 μL/g oral administration of the Eudragit L100 SDD suspension of Example 18 (100 mg/kg; 5 mL/kg; 18B); (4) 5 μL/g oral administration of the HPMCAS-M SDD suspension of Example 18 (100 mg/kg; 5 mL/kg; 18C); (5) 5 μL/g oral administration of the 20 mg/mL 6,8-bis-benzylthio-octanoic acid suspension of Example 18 (100 mg/kg; 5 mL/kg; 18D); or (6) 10 μL/g oral administration of the 10 mg/mL SOLUTOL solution of Example 18 (100 mg/kg; 10 mL/kg; 18E). In each experiment, about 80 μL of blood was collected from one subgroup of 4 male and 4 female mice at 0.083, 1, 4, and 24 hours after dosing, and from the other subgroup of 4 male and 4 female mice at 0.5, 2, and 8 hours. Plasma from the collected blood samples was analyzed by LC-MS/MS for the presence of 6,8-bis-benzylthio-octanoic acid.

[5] = Pardee et al., Clin Cancer Res. 2014; cited from earlier work
[6] = Animal studies of IV administration (toxicity); type: in vivo
Experimental: CPI-613 must be administered IV, via an IV catheter that is free flowing and free of air in the dead space of the IV catheter, to minimize vascular irritation, inflammation and acute toxicity of CPI-613. […] To avoid local reactions at and around the site of administration, CPI-613 must be administered via a central venous catheter.
CPI-613 must not be administered as a bolus, but by infusion, at a rate of ˜0.5 mL/min, via a central venous catheter with D5W running at a rate of about 125-150 mL/hr. This is to minimize potential acute toxicity of CPI-613, according to animal studies.

K562 and MFL2 AML cells = experiment: LC3-II blot for induction of autophagy in AML cells; type: cell-based; conditions: CPI-613 200 μM, 4 hours
Description: Complete media (“Full”) and Hank's Balanced Salt Solution medium (HBSS) were used as negative and positive controls of autophagy, respectively.

HS-MM cells [7] = experiment: Annexin V / propidium iodide cell death staining in HS-MM cells; type: cell-based; conditions: necrostatin-1 5, 10 or 50 μM with CPI-613 1 μg/mL + chloroquine 10 μg/mL
Experimental: HS-MM cells (Sonobe H. et al., J. Pathol., 1993, 169, 317-322; Sonobe H. et al., J. Pathol., 1999, 187, 594-597) were cultured with Dulbecco's modified Eagle's medium (DMEM; Gibco Life Technologies, Grand Island, N.Y., USA) containing 10% heat-inactivated fetal bovine serum (FBS). Cells were incubated with vehicle (DMEM+10% heat-inactivated FBS containing the same amount of DMSO and distilled water present in the corresponding CPI-613, chloroquine, and necrostatin-1 experiments), chloroquine (10 μg/mL), CPI-613 (1 μg/mL or 10 μg/mL), the combination of chloroquine (10 μg/mL) and CPI-613 (100 ng/mL, 1 μg/mL, or 10 μg/mL), or the combination of chloroquine (10 μg/mL) and CPI-613 (1 μg/mL) in the presence of necrostatin-1 (5 μM, 10 μM, or 50 μM), and then double stained with a fluorescein isothiocyante (FITC)-conjugated Annexin V and propidium iodide (PI) (PromoCell GMbH, Heidelberg, Germany) followed by analysis with a confocal fluorescence microscope and cell analyzer. The chloroquine and CPI-613 were added to the media from 5 mg/mL stock solutions in distilled water or DMSO, respectively, as in Example 11. The necrostatin-1 was added to the media from a 5 mg/mL stock solution in DMSO.

O=C(O)CCCCC(CCSCc1ccccc1)SCc1ccccc1 (stereo not shown) [6,8-bis-benzylthio-octanoic acid]
tumor growth effect [1]: especially pronounced | tumor growth versus 5% dextrose or untreated [2]: grew much more slowly | induction of autophagy (DALGreen fluorescence) (HS-MM cells [3]; CPI-613 1 μg/mL): induces autophagy in HS-MM cells | oral bioavailability (conclusion in words) [4]: orally bioavailable | half-life after IV dosing [5]: 1 to 2 h | acute toxicity with extra air in dead space of IV catheter ([6]; accidental co-administration of air during IV administration, animal studies): potential to induce acute toxicity | local reaction on leakage into the perivascular space ([6]; in vivo, iv): can induce significant local inflammation | induction of autophagy (LC3-II blot) (K562 and MFL2 AML cells): induces autophagy in AML cells

CN1C(=O)C(Cc2c[nH]c3ccccc23)NC1=S (stereo not shown) [necrostatin-1]
effect on cell death induced by CPI-613 plus chloroquine (HS-MM cells [7]): did not affect cell death

CCN(CC)CCCC(C)Nc1ccnc2cc(Cl)ccc12 (stereo not shown) [chloroquine, reference compound]
blocking of CPI-613 autophagy induction (HS-MM cells [3]; chloroquine 10 μg/mL with CPI-613 1 μg/mL): autophagy induction can be blocked
